One data set concerns HepG2. The experiment in a line: Western blot for H2B S14 phosphorylation after cytotoxic agent treatment. In kind it is cell-based. As for the experimental part:
(§1) Cell culture, drug and UV treatment, and harvesting for protein and DNA: HL-60 cells were cultured in RPMI with 10% FBS whereas 293T, HeLa, HepG2, and IMR90 were grown in DMEM with 10% FBS. Etoposide, anisomycin, […] and anti-Fas were purchased from Sigma. To induce apoptosis, drugs were used in these concentration 20 ug/mL for etoposide, 25 ng/mL anisomycin and 15 ng/mL anti-Fas. For UV induction of apoptosis, 40-100 J/m^2 was used (Biorad GS Gene Linker UV chamber). After induction of apoptosis the growth media was changed and harvested at various times afterward. Control cells were either treated with DMSO or mock-treated.
After the desired treatment, cells were subjected to any of the following: resuspension in SDS-lysis buffer (Laemmli's sample buffer), nuclear extraction, acid extraction for histones, or genomic DNA extraction. Nuclei were isolated by lysis in detergent and low speed spin as described in Strahl et al., (2001) Curr Biol 11, 996-1000. These nuclei can either be salt extracted for nuclear proteins (see below) or acid extracted in 0.4 N H2SO4. After incubating on ice for 2-4 hours, high speed centrifugation is done to remove the insoluble pellet. […]
(§2) After Cytotoxic agent treatments, cells were harvested. The level of H2B S14 phosphorylation is determined by Western blots using ePhos (S14) H2B.
For orientation: A western blot detects proteins with antibodies after separation by electrophoresis.

In data set [1] the test system is HL-60 cells. The experiment in a line: Western blots of histones from HL-60 cells after cytotoxic agent treatment. To be noted: for Levels of H2B S14 Phons Induction: etoposide 20 ug/mL, anisomycin 25 ng/mL, anti-Fas 15 ng/mL. In kind it is cell-based, human. How it is done:
as §1
After the desired treatment, cells were subjected to any of the following: resuspension in SDS-lysis buffer (Laemmli's sample buffer), nuclear extraction, acid extraction for histones, or genomic DNA extraction. Nuclei were isolated by lysis in detergent and low speed spin as described in Strahl et al., (2001) Curr Biol 11, 996-1000. These nuclei can either be salt extracted for nuclear proteins (see below) or acid extracted in 0.4 N H2SO4. After incubating on ice for 2-4 hours, high speed centrifugation is done to remove the insoluble pellet. 5.4% of Percholic acid was added to the supernatant and the precipitated histones were resuspended in water.
(§3) Western blot analysis is performed as described in (Briggs et al., (2001) Genes Dev 15, 3286-3295) 1:1000 of α-phos (S14) H2B, 1:2500 of α-N-Mst1, 1:400 of α-myc (9E10 from Santa Cruz), 1:800 of α-PARP (UBI), 1:1000 of α-phos H2A.X (UBI), and 1:5000 of ax-Acetyl H4 primary antibodies were used. HRP-conjugated rabbit secondary (Amersham Pharmacia) was used at 1:5000. For chemiluminescence, the ECL plus kit (Amersham Pharmacia) was used for detection.
(§4) Initially, HL-60 (human leukemia cell line) cells were treated with etoposide (VP-16) to induce apoptosis. After treatment for various length of time, histones were isolated by acid extraction and examined by Western blot using the S14P antibody. […] To confirm the induction of apoptosis, soluble DNA was extracted from parallel samples at identical time points. The appearance of a ‘DNA ladder’, indicative of apoptotic DNA fragmentation at 4 hour post treatment, coincides precisely with the onset of H2B Ser14 phosphorylation. Furthermore, an increase of H2B S14 phosphorylation was observed that correlates with the exposure time to the etoposide.
as §2

Data set [2] has as its system HL-60 cells. The experiment in a line: Apoptotic DNA fragmentation (DNA ladder) after VP-16 treatment. In kind it is cell-based, human. As for the experimental part: Genomic DNA was harvested by lysing the cell pellet in 10 mM Tris pH 9.0, 1 mM EDTA, 10 mM NaCl, 1% w/v SDS, 1 mg/mL of proteinase K at 50° C. for 4-5 hours. To remove proteins, a phenol/chloroform extraction was performed and then the DNA was precipitated in 0.3 M sodium acetate and 70% Ethanol. After centrifugation, the pellet was resuspended in TE and the RNA was digested by adding 1 mg/mL Rnase A for 1 hour at room temp. DNA was separated in 1.2% agarose TAE gel.
as §4

Data set [3] deals with HL-60 cells. The experiment in a line: Caspase 3 inhibitor pre-incubation before VP16, Western analysis of Mst1 cleavage and H2B Ser14 phosphorylation. In kind it is cell-based, human. Conditions: then VP16 for 4 hours. As for the experimental part: as §3
If H2B (Ser14) phosphorylation is dependent on the cleavage of Mst1, this histone modification should be sensitive to documented caspase 3 inhibitors such as the DEVD peptide. To test this prediction, HL-60 cells were pre-incubated with varying amounts of z-DEVD-fmk (Trevigen) before subsequent treatment with VP16 for 4 hours. Cell extracts were then harvested for western analysis. […] Accordingly, H2B is likely phosphorylated in vivo at Ser14 by the caspase 3-generated form of Mst1.

Data set [4] deals with histone H2B (substrate of the in vitro kinase reactions).

Residue numbers refer to the chain shown, from its start.

Take `COS(C)(=O)=O` [MMS]: the “Levels of H2B S14 Phons Induction” value with HepG2 is given as “Medium”.
As to `COc1ccc(C[C@H]2NC[C@H](O)[C@H]2OC(C)=O)cc1` [Anisomycin], the “Levels of H2B S14 Phons Induction” value in the data set on HL-60 cells [1] (Western blot) is “High”.
Consider `COc1cc([C@@H]2c3cc4c(cc3[C@@H](O[C@@H]3O[C@@H]5CO[C@@H](C)O[C@H]5[C@H](O)[C@H]3O)[C@H]3COC(=O)[C@H]23)OCO4)cc(OC)c1O` [Etoposide (VP16), Etoposide], for which, in the data set with HL-60 cells [2], the “Time post treatment of appearance of DNA ladder (apoptotic DNA fragmentation)” value is 4 h. In the data set on HL-60 cells [1] (Western blot), the “Time of H2A.X phosphorylation after treatment” value is “one” and the “Levels of H2B S14 Phons Induction” value was “High”. In the data set with HL-60 cells [1] (Western blot with S14P antibody), the “Time post treatment at which H2B phosphorylation signal is strongly enhanced” value is recorded as “around 4 hours”.
For z-DEVD-fmk, in the data set with HL-60 cells [3] (20 mM inhibitor), the H2B phosphorylation result is “only a modest decrease” and the “Proportion of truncated Mst1 over full length Mst1” value is “only a modest decrease”. Moreover, in the data set on HL-60 cells [3] (200 mM inhibitor), the “H2B Ser14 phosphorylation” value is listed as “inhibited” and the Mst1 cleavage entry is “inhibited”.

B1: myc-tagged C-terminal truncated form of Mst1 (protein)
chain: METVQLRNPPRRQLKKLDEDSLTKQPEEVFDVLEKLGEGSYGSVYKAIHKETGQIVAIKQVPVESDLQEIIKEISIMQQCDSPHVVKYYGSYFKNTDLWIVMEYCGAGSVSDIIRLRNKTLTEDEIATILQSTLKGLEYLHFMRKIHRDIKAGNILLNTEGHAKLADFGVAGQLTDTMAKRNTVIGTPFWMAPEVIQEIGYNCVADIWSLGITAIEMAEGKPPYADIHPMRAIFMIPTNPPPTFRKPELWSDNFTDFVKQCLVKSPEQRATATQLLQHPFVRSAKGVSILRDLINEAMDVKLKRQESQQREVDQDDEENSEEDEMD
As for B1, in data set [4], the “IP kinase reaction with non-radioactive ATP, Western blot with the S14P antibody” value was “both Mst1 FL and DC phosphorylate H2B at Ser14 as detected by the S14P antibody”; the “in vitro kinase assay on myc immunoprecipitates, with g(32P)-ATP or cold ATP” value (“in vitro kinase assay” below) is “Strong phosphorylation of H2B was detected with both full length and DC Mst1”.

B2: myc-tagged full length Mst1 (protein)
chain: METVQLRNPPRRQLKKLDEDSLTKQPEEVFDVLEKLGEGSYGSVYKAIHKETGQIVAIKQVPVESDLQEIIKEISIMQQCDSPHVVKYYGSYFKNTDLWIVMEYCGAGSVSDIIRLRNKTLTEDEIATILQSTLKGLEYLHFMRKIHRDIKAGNILLNTEGHAKLADFGVAGQLTDTMAKRNTVIGTPFWMAPEVIQEIGYNCVADIWSLGITAIEMAEGKPPYADIHPMRAIFMIPTNPPPTFRKPELWSDNFTDFVKQCLVKSPEQRATATQLLQHPFVRSAKGVSILRDLINEAMDVKLKRQESQQREVDQDDEENSEEDEMDSGTMVRAVGDEMGTVRVASTMTDGANTMIEHDDTLPSQLGTMVINAEDEEEEGTMKRRDETMQPAKPSFLEYFEQKEKENQINSFGKSVPGPLKNSSDWKIPQDGDYEFLKSWTVEDLQKRLLALDPMMEQEIEEIRQKYQSKRQPILDAIEAKKRRQQNF
In the case of B2, in data set [4], the “IP kinase reaction with non-radioactive ATP, Western blot with the S14P antibody” value is “both Mst1 FL and DC phosphorylate H2B at Ser14 as detected by the S14P antibody”; the “in vitro kinase assay” value was “Strong phosphorylation of H2B was detected with both full length and DC Mst1”.

B3: myc-tagged kinase dead Mst1 (protein)
chain: B2 chain with K59R
B3: the “in vitro kinase assay” value in data set [4] was “the kinase dead form Mst1 (which contains a single point mutation) did not phosphorylate H2B”.

Source of the values: patent US20040197838A1, “Phosphorylated histone h2b as apoptosis marker” (priority 2001, published 2004).
